Reference: patent publication US20230015691A1, “PROPHYLACTIC OR THERAPEUTIC AGENT FOR NON-ALCOHOLIC STEATOHEPATITIS IN HUMANS” (MITSUBISHI TANABE PHARMA CORPORATION, priority 2019, published 2023)

Key:
serum TIMP-1 = test: Change in serum TIMP-1 level (ADVIA Centaur TIMP-1 assay); type: in vivo, human; details: for Change from baseline/TIMP-1, LS Mean: serum, NASH patients, 10 mg once daily
Protocol: (§1) [Test Protocol] • Number of cases to be analyzed: 47 cases (placebo administration group: 23 cases; MT-3995 administration group: 24 cases) • The subjects were selected according to the following criteria.
(§2) • Pre-observation period (number of weeks): 10 weeks • Administration period (number of weeks): 72 weeks • Post-observation period (number of weeks): 8 weeks • Dosage and administration: MT-3995 administration group=once daily, 10 mg; placebo group=once-daily administration
Table 5 and FIG. 4 show the average amount of change in the serum TIMP-1 level after the assignment. For measurement of the serum TIMP-1 level, serum was prepared from blood collected from each patient, according to a conventional method. The prepared serum was subjected to a test. For the measurement, ADVIA Centaur (registered trademark) TIMP-1 assay (Siemens Healthcare Diagnostics K. K.) was used.

[1] = system: serum hyaluronic acid (HA); test: Change in serum hyaluronic acid level (Chemilumi Hyaluronic Acid); type: in vivo, human; details: for Change from baseline/Hyaluronic Acid, LS Mean: serum, NASH patients, 10 mg once daily
Protocol: as §1, §2
Table 3 and FIG. 2 show the average amount of change in the serum hyaluronic acid level after the assignment. For measurement of the serum hyaluronic acid level, serum was prepared from blood collected from each patient on the day of the visit, according to a conventional method. The prepared serum was subjected to a test. For the measurement, Chemilumi Hyaluronic Acid (Siemens Healthcare Diagnostics K. K.) was used.

liver stiffness [2] = test: Change in liver stiffness (Shear Wave Elastography); type: in vivo, human; details: for Change from baseline/Liver stiffness (Shear Wave Elastography), Mean (SD): NASH patients, 10 mg once daily
Protocol: as §1, §2
(§3) The liver stiffness after the assignment was measured using Shear Wave Elastography or Fibro scan. Table 7 and FIG. 6 show the average amount of change in the liver stiffness according to Shear Wave Elastography. Table 8 and FIG. 7 show the average amount of change in the liver stiffness according to Fibro scan.

[3] = Body weight change in NASH patients (clinical trial, 72 weeks); type: in vivo, human; details: 10 mg once daily; for Change from baseline/Weight, Mean (SD): NASH patients
Protocol: as §1
Kleiner fibrosis classification: Stage 2 or Stage 3
as §2
Table 2 and FIG. 1 show the average amount of change in the body weight after the assignment, in the placebo group and the MT-3995 group. The body weight was measured at the time of the visit.

liver stiffness [4] = test: Change in liver stiffness (Fibro scan); type: in vivo, human; details: for Change from baseline/Liver stiffness (Fibro scan), Mean: NASH patients, 10 mg once daily
Protocol: as §1, §2, §3

[5] = system: non-alcoholic steatohepatitis (NASH) model rats; details: Patent Document 1; cited from earlier work
[6] = system: plasma-soluble Vascular Cell Adhesion Molecule-1 (sVCAM); test: Change in plasma sVCAM-1 level (Human sVCAM-1/CD106 Quantikine ELISA Kit); type: in vivo; details: for Change from baseline/sVCAM-1, Mean: plasma, 10 mg once daily
Protocol: as §1, §2
Table 6-1 and FIG. 5-1 show the average amount of change in the plasma-soluble Vascular Cell Adhesion Molecule-1 (sVCAM) after the assignment. For measurement of the plasma sVCAM level, plasma was prepared from blood collected from each patient, according to a conventional method. The prepared plasma was subjected to a test. For the measurement, a Human sVCAM-1/CD106 Quantikine ELISA Kit (R&D Systems, Inc.) was used.
A stratified analysis was carried out for the subjects based on the presence or absence of complication with diabetes. DM represents the “group of patients complicated with diabetes”. A higher effect was found in the group of patients complicated with diabetes.
Further, a stratified analysis was carried out for the subjects based on the presence or absence of complication with hypertension. HP represents the “group of patients complicated with hypertension”. A higher effect was found in the group of patients complicated with hypertension.

## CC1(C)Oc2cc(NS(C)(=O)=O)ccc2N(c2ccc(F)cc2)C1=O [MT-3995]
Serum TIMP-1; from Week 24 after the beginning of the treatment
  Serum TIMP-1 values versus beginning of the administration: lower than the value observed at the beginning of the administration
Serum TIMP-1; Week 12
  Change from baseline/TIMP-1, LS Mean: 2.4 ng/mL
Serum TIMP-1; Week 24
  Change from baseline/TIMP-1, LS Mean: -7.2 ng/mL
Serum TIMP-1; Week 48
  Change from baseline/TIMP-1, LS Mean: -22.4 ng/mL
Serum TIMP-1; Week 72
  Change from baseline/TIMP-1, LS Mean: -25.8 ng/mL
Serum TIMP-1; throughout the period of the clinical trial
  Serum TIMP-1 values versus placebo group: lower than the values in the Placebo group
[1]; Weeks 24, 48, and 72 after the beginning of the administration
  Serum hyaluronic acid level versus placebo group: significantly lower than the level in the placebo group
[1]; Week 12
  Change from baseline/Hyaluronic Acid, LS Mean: -31.87 ng/mL
[1]; Week 24
  Change from baseline/Hyaluronic Acid, LS Mean: -39.02 ng/mL
[1]; Week 48
  Change from baseline/Hyaluronic Acid, LS Mean: -47.23 ng/mL
[1]; Week 72
  Change from baseline/Hyaluronic Acid, LS Mean: -32.02 ng/mL
[1]; throughout the treatment period
  Serum hyaluronic acid level versus beginning of the administration: lower than the level observed at the beginning of the administration
Liver stiffness [2]; Week 12
  Change from baseline/Liver stiffness (Shear Wave Elastography), Mean (SD): −4.57 (2.48) kPa
Liver stiffness [2]; Week 24
  Change from baseline/Liver stiffness (Shear Wave Elastography), Mean (SD): −5.63 (3.23) kPa
Liver stiffness [2]; Week 48
  Change from baseline/Liver stiffness (Shear Wave Elastography), Mean (SD): −4.90 (4.38) kPa
Liver stiffness [2]; Week 72
  Change from baseline/Liver stiffness (Shear Wave Elastography), Mean (SD): −6.00 (5.23) kPa
Liver stiffness [2]; Shear Wave Elastography, throughout the treatment period
  Liver stiffness versus beginning of the administration: lower than the value observed at the beginning of the administration
[3]; 72 weeks
  Rate of body weight reduction versus placebo group: higher in the MT-3995 administration group than in the placebo group
[3]; Week 12
  Change from baseline/Weight, Mean (SD): −1.39 (1.55) kg
[3]; Week 24
  Change from baseline/Weight, Mean (SD): −1.73 (2.09) kg
[3]; Week 36
  Change from baseline/Weight, Mean (SD): −1.88 (2.99) kg
[3]; Week 48
  Change from baseline/Weight, Mean (SD): −2.15 (3.23) kg
[3]; Week 60
  Change from baseline/Weight, Mean (SD): −2.23 (3.25) kg
[3]; Week 72
  Change from baseline/Weight, Mean (SD): −2.21 (3.10) kg
[3]; from the beginning of the administration
  Body weight change: A decrease in the body weight was found
Liver stiffness [4]; Fibro scan, throughout the treatment period
  Liver stiffness versus beginning of the administration: lower than the value observed at the beginning of the administration
Liver stiffness [4]; Week 12
  Change from baseline/Liver stiffness (Fibro scan), Mean: −0.49 kPa
Liver stiffness [4]; Week 24
  Change from baseline/Liver stiffness (Fibro scan), Mean: 0.30 kPa
Liver stiffness [4]; Week 48
  Change from baseline/Liver stiffness (Fibro scan), Mean: −1.05 kPa
Liver stiffness [4]; Week 72
  Change from baseline/Liver stiffness (Fibro scan), Mean: −1.41 kPa
[5]
  Effectiveness based on Sirius Red-positive area and fibrosis score: effectiveness
[6]; Week 24, Week 48, and Week 72
  Plasma sVCAM value versus placebo group: lower than the value in the placebo group
[6]; from Week 24 after the beginning of the administration
  Plasma sVCAM values versus beginning of the administration: lower plasma sVCAM values
[6]; DM (patients complicated with diabetes), Week 12
  Change from baseline/sVCAM-1, Mean: -6.58 ng/mL
[6]; DM (patients complicated with diabetes), Week 24
  Change from baseline/sVCAM-1, Mean: -47.08 ng/mL
[6]; DM (patients complicated with diabetes), Week 48
  Change from baseline/sVCAM-1, Mean: -62.73 ng/mL
[6]; DM (patients complicated with diabetes), Week 72
  Change from baseline/sVCAM-1, Mean: -112.27 ng/mL
[6]; HP (patients complicated with hypertension), Week 12
  Change from baseline/sVCAM-1, Mean: 5.69 ng/mL
[6]; HP (patients complicated with hypertension), Week 24
  Change from baseline/sVCAM-1, Mean: -44.06 ng/mL
[6]; HP (patients complicated with hypertension), Week 48
  Change from baseline/sVCAM-1, Mean: -70.29 ng/mL
[6]; HP (patients complicated with hypertension), Week 72
  Change from baseline/sVCAM-1, Mean: -89.57 ng/mL
[6]; all NASH patients, Week 12
  Change from baseline/sVCAM-1, Mean: 13.8 ng/mL
[6]; all NASH patients, Week 24
  Change from baseline/sVCAM-1, Mean: -43.8 ng/mL
[6]; all NASH patients, Week 48
  Change from baseline/sVCAM-1, Mean: -44.7 ng/mL
[6]; all NASH patients, Week 72
  Change from baseline/sVCAM-1, Mean: -74.7 ng/mL
[6]; non-DM patients, Week 12
  Change from baseline/sVCAM-1, Mean: 34.25 ng/mL
[6]; non-DM patients, Week 24
  Change from baseline/sVCAM-1, Mean: -40.58 ng/mL
[6]; non-DM patients, Week 48
  Change from baseline/sVCAM-1, Mean: -26.64 ng/mL
[6]; non-DM patients, Week 72
  Change from baseline/sVCAM-1, Mean: -37.18 ng/mL
[6]; non-HP patients, Week 12
  Change from baseline/sVCAM-1, Mean: 30.13 ng/mL
[6]; non-HP patients, Week 24
  Change from baseline/sVCAM-1, Mean: -43.38 ng/mL
[6]; non-HP patients, Week 48
  Change from baseline/sVCAM-1, Mean: 0.13 ng/mL
[6]; non-HP patients, Week 72
  Change from baseline/sVCAM-1, Mean: -48.75 ng/mL
